Here are results for 1 compound from US20250339426A1, “GCN2 MODULATOR FOR TREATING CANCER” (HIBERCELL, INC., priority 2022, published 2025).

Assay [1] relates to oxidative phosphorylation pathway in FaDu tumors. In words: Non-targeted proteomic analysis of FaDu tumors. The assay is classed as in vivo, mice. The procedure: FaDu tumor bearing mice were treated with vehicle or HC-7366 (1, 3, or 30 mg/kg) twice a day orally for three days, and on the morning of Day 4 an AM dose was administered and tumors and plasma were collected 1 hr after dose. Tumor and plasma samples were extracted and split into equal parts for analysis on LC/MS/MS and Polar LC platforms. Proprietary software was used to match ions to an in-house library of standards for metabolite identification and for metabolite quantitation by peak area integration (Metabolon). Proteomic analysis on tumors was performed at MS Bioworks. The equivalent of 3 μg of peptide from each pooled fraction was analyzed by nano LC-MS/MS with a Waters M-Class HPLC system interfaced to a ThermoFisher Fusion Lumos mass spectrometer. Histograms show metabolite levels of treatment groups normalized to vehicle control (FIGS. 115-122).
FaDu tumor bearing mice were treated with HC-7366 at 3 and 30 mg/kg twice a day for four days. Tumors were harvested for non-targeted proteomic analysis.

The subject of assay [2] is HCT116 (human colorectal cancer cells). In words: In vivo tumor growth inhibition, HCT116 xenograft. Also on record: species or system Athymic Nude-Foxn1nu mice. The procedure:
HCT116 (human colorectal cancer cells): Female 7-8 weeks old Athymic Nude-Foxn1nu mice were inoculated subcutaneously on the right flank with HCT116 tumor cells (5 ×10^6) in 0.1 ml of McCoy's 5a medium without serum for tumor development. Single agent HC-7366 was dosed at 3 or 30 mg/kg (twice daily, orally), Trametinib at 1 mg/kg (once a day, orally) and Alpelisib at 50 mg/kg (once a day, orally). HC-7366 was combined with either Trametinib or Alpelisib. The treatments were started when the mean tumor size reached approximately 270 mm^3 at Day 18 post inoculation and continued until end of study (FIGS. 63-64).
[formula] • 2.2.2 Tumor Measurements: The measurement of tumor size was conducted three times weekly with a caliper and recorded. The tumor volume (mm^3) was estimated using the formula: TV=a×b^2/2, where “a” and “b” is long and short diameters of a tumor, respectively. Tumor volume was calculated using the formula [tumor volume (mm^3)=π/6×length×width^2).
Regression was calculated using the formula=100×ΔT/T initial, if ΔT<0. Animals with 0 mm^3 tumor volume (no measurable tumor) for three consecutive measurements were considered as complete responders and animals with 50% tumor regressions were partial responders.

In assay [3] the test system is ASNS, PSAT1, PUMA, HIF1α, HIF2a in DLD-1 tumors. Kind of assay: Tumor IHC, DLD-1 tumors. The assay is classed as in vivo, BALB/c nude mice. The procedure:
Immunohistochemical analysis was carried out on tumors that were collected at the end of the study described in Example 6. Formalin-fixed paraffin-embedded samples were sectioned at 5 μm thickness and mounted on Superfrost Plus microscope slides (Fisher Scientific). All immunohistochemical (IHC) staining was performed on Bond Rx auto-stainer (Leica Biosystems) using the conventional TSA-amplified detection system. Primary antibodies used were as follows: a-ASNS (Cell Signaling Technology #92479), a-PUMA (Cell Signaling Technology #98672), a-PSAT1 (Proteintech #10501-1-AP), a-PHGDH (Proteintech #14719-1-AP), HIF-1a-Novus Biologicals NB 100-479, HIF-2a-Novus Biologicals NB100-122SS, and GLUT-1-EMB Biosciences 07-1401. TSA-conjugated Alexa488, Alexa 568 and Alexa647 fluorophores from Invitrogen (#B40953, #B40956, and #B40958) were used at 1:500 dilution. Slides were counterstained with DAPI and cover slipped using Mowiol anti-fade mounting media (Sigma #D2522).
Slides were imaged with Aperio Versa 200 (Leica Biosystems) whole-slide scanner using 10×/0.32NA objective, and the data were analyzed using custom-written macros in ImageJ/FIJI (NIH). Briefly, 150 μm of outer edges of the tumor sections and necrotic regions (determined by lack of 4′,6-diamidino-2-phenylindole (DAPI) signal or presence of condensed DNA) were eliminated from the analysis. Gaussian-blurred DAPI channel was used to measure the area of the tumor tissue. Scans of immune-staining were processed to remove background, then total intensity value above appropriate threshold levels was measured and normalized to tissue area. All graphing and statistics (one-way ANOVA and pair-wise comparisons) were performed using Prism GraphPad.

Assay [4] deals with human AML cells of model CTG-2229. Kind of assay: AML PDX in vivo study, flow cytometry of blood, spleen, bone marrow. The arrangement: species or system NCG mice. The note with it: 1 mg/kg PO/BID×28, all tissues. The procedure:
Sub-lethally irradiated NCG mice were inoculated with 2×10^6 human AML cells of model CTG-2229. Mice were monitored post AML inoculation to assess human AML engraftment using huCD45/muCD45/huCD33/huCD3 antibodies and BD TruCount™ beads. When individual animals had ≥20% live huCD45 cells in the bone marrow, they were randomized to treatment cohorts. For the efficacy study, animals were administered (n=13/group) with vehicle control, HC-7366 at 1 mg/kg, 10 mg/kg or 30 mg/kg PO/BID×28, or Venetoclax at 100 mg/kg PO/QD×28. Terminal blood, spleen, and bone marrow samples were collected for flow cytometry (FIG. 87). Tolerability was assessed by body weight loss, lethality, and clinical signs of adverse treatment-related side effects. Body weights were measured twice weekly.
On the technique in general: In flow cytometry, cells or beads pass a laser one at a time.

The subject of another assay is FaDu cells. In words: Metabolomics in wild type and GCN2 CRISPR knockout FaDu cells. The settings on record: 0.1 μM. The assay is classed as cell-based, human. The method, then:
Wild type and GCN2 CRISPR knockout FaDu cells were treated with 0.1 μM for 9 hours, and metabolomics were evaluated.

The subject of assay [5] is HIF2α and GLUT1 in 786-O tumors. Kind of assay: Tumor IHC, 786-O tumors (DC101 combination study). Type of assay: in vivo, BALB/c nude mice. The settings on record: HC-7366 2 mg/kg twice daily, DC101 15 mg/kg twice a week. The method, then:
786-O (human renal cell carcinoma cancer cells): Female 6-8 weeks old BALB/c nude mice were inoculated subcutaneously on the right flank with 786-O tumor cells (5×10^6) in 0.1 ml of RPMI1640 medium without serum for tumor development. The treatments were started when the mean tumor size reached approximately 189 mm^3 after three weeks post inoculation and continued until end of study by twice daily oral gavage dosing of HC-7366 at listed doses (vehicle or 2 mg/kg HC-7366, FIGS. 52-54). For the DC101 combination study, DC101 (murine monoclonal anti-VEGFR2 antibody) was dosed at 15 mg/kg twice a week by intraperitoneal injection.
Immunohistochemical analysis was carried out on tumors that were collected at the end of the study described in Example 6. […]
Slides were imaged with Aperio Versa 200 (Leica Biosystems) whole-slide scanner using 10×/0.32NA objective, and the data were analyzed using custom-written macros in ImageJ/FIJI (NIH). Briefly, 150 μm of outer edges of the tumor sections and necrotic regions (determined by lack of 4′,6-diamidino-2-phenylindole (DAPI) signal or presence of condensed DNA) were eliminated from the analysis. […] Scans of immune-staining were processed to remove background, then total intensity value above appropriate threshold levels was measured and normalized to tissue area. […]

The mark [6] stands for this setting: end of study (day 20), bell-shaped manner.
Where [7] appears, read: printed 'in FaDu tumors', FIGS. 29-39.

What is called TGI is the reduction of tumour growth relative to the control group. High values mean much slowing of growth, low ones little slowing of growth. As for `CNC(=O)c1ncn2cc(-c3c(F)ccc(NS(=O)(=O)c4cc(Cl)cnc4OC)c3F)ncc12` [HC-7366, 6-(3-((5-chloro-2-methoxypyridine)-3-sulfonamido)-2,6-difluorophenyl)-N-methylimidazo[1,5-a]pyrazine-1-carboxamide], the “oxidative phosphorylation pathway, pathway analysis (IPA)” value in assay [1] (3 mg/kg twice a day, four days) is “strong repression”. The “protein subunits of the electron transport chain” value in assay [1] (3 mg/kg, relative to vehicle) is recorded as “decreased”. Moreover, the TGI in assay [2] (HC-7366 3 mg/kg twice daily, alpelisib study (FIG. 63), trend) was approximately 38%. In assay [2] (HC-7366 30 mg/kg twice daily, alpelisib study (FIG. 63)), the “effect on tumor growth” value is reported as “did not reduce tumor growth”. For the same compound, the efficacy entry in assay [2] (HC-7366 at either 3 or 30 mg/kg, trametinib study (FIG. 64)) is reported as “did not show efficacy”. In assay [3] (setting [6]), the “ASNS by IHC” value is given as “potently induced”, the “PSAT1 by IHC” value was “potently induced” and the “PUMA by IHC” value was “potently induced”. Besides, in assay [3] (setting [7]), the HIF1α protein levels entry is on record as “significantly reduced” and the HIF2α protein levels result is recorded as “significantly reduced”. Further, the “myeloid restricted precursor (CD34+CD33+) and mature myeloid cells (CD34−CD33+)” value in assay [4] is “significantly decreased”. The ATF4 entry in the assay on FaDu cells (GCN2 dependent manner) is “induced”. Besides, the “level of many amino acids” value with FaDu cells (wild type FaDu cells, 9 h, GCN2-dependent) is given as “enhanced level”. Besides, the “GLUT1 levels by IHC” value in assay [5] is “significantly reduced”. The “HIF2α by IHC” value in assay [5] (single agents and combination) is “significantly decreased”.
